Experimental data: ChEMBL document CHEMBL5665443, “Enzyme Inhibitor Single Concentration assay results for EUbOPEN Chemogenomics Library” (2024)

What was measured:
Conditions in all cases: Compound Concentration 10.0 uM, Hit No
[1] = target: G/T mismatch-specific thymine DNA glycosylase (Homo sapiens) (UniProt Q13569);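 also: human TDG cleavage of quenched duplex DNA oligonucleotides coupled to APE1, strand release read as fluorescence at 594 nm, inhibition of TDG activity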
Description: Inhibition of TDG by quantifying inhibition of TDG-mediated cleavage and dissociation of quenched duplex DNA oligonucleotides, measured as fluorescence at 594 nm. To generate a functional strand incision and increase turn-over this assay is coupled to APE1.

[2] = target: T1, Single-strand selective monofunctional uracil DNA glycosylase (Homo sapiens) (UniProt Q53HV7);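 also: enzymatic SMUG1 assay coupled with APE1, reading fluorescence at 594 nm released when a quenched double-stranded DNA oligonucleotide substrate is cleaved and separated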
T1 sequence (whole entry): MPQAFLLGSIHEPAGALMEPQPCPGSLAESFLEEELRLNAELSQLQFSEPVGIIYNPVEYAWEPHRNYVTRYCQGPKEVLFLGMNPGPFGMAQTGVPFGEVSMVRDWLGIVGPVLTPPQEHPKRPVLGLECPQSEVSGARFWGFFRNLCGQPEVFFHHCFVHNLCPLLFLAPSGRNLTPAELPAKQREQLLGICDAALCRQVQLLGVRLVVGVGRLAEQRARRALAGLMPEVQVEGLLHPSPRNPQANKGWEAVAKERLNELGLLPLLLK
Description: Inhibition of SMUG1 by quantifying inhibition of SMUG1-mediated cleavage and dissociation of quenched duplex DNA oligonucleotides, measured as fluorescence at 594 nm. To generate a functional strand incision and increase turn-over this assay is coupled to APE1.

[3] = target: Endonuclease 8-like 1 (Homo sapiens) (UniProt Q96FI4);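 also: fluorescence at 594 nm from quenched duplex DNA oligonucleotides released by NEIL1 cleavage and strand separation, reported as reduction of this enzyme activity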
Endonuclease 8-like 1 (Homo sapiens), sequence (Q96FI4 whole entry): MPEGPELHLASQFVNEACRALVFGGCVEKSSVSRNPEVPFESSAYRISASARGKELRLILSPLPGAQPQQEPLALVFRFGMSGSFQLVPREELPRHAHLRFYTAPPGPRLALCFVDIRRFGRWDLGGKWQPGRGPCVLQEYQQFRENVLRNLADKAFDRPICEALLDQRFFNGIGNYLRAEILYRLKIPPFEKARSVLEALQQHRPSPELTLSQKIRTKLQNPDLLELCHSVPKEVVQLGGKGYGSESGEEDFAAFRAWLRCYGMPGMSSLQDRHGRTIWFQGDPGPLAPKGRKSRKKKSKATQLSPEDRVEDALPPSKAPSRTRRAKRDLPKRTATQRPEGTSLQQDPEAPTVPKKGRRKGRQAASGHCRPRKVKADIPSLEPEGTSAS
Description: Inhibition of NEIL1 by quantifying inhibition of NEIL1-mediated cleavage and dissociation of quenched duplex DNA oligonucleotides, measured as fluorescence at 594 nm.

[4] = target: T2, Endonuclease III-like protein 1 (Homo sapiens) (UniProt P78549);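 also: enzyme assay tracking NTHL1 cutting and release of a quenched double-stranded DNA oligo substrate, read as fluorescence at 594 nm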
T2 sequence (whole entry): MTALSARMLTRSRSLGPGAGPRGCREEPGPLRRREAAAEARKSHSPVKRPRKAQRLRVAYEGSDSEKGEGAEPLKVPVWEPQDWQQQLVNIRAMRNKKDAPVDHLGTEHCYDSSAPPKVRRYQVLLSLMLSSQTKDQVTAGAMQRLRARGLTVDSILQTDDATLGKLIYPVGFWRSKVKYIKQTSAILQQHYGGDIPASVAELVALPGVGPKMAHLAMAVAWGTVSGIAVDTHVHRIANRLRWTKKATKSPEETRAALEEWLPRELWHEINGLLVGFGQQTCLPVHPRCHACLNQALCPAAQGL
Description: Inhibition of NTHL1 by quantifying inhibition of NTHL1-mediated cleavage and dissociation of quenched duplex DNA oligonucleotides, measured as fluorescence at 594 nm.

[5] = target: T3, Adenine DNA glycosylase (Homo sapiens) (UniProt Q9UIF7);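 also: human MUTYH activity read as 594 nm fluorescence from cleavage and release of a quenched DNA duplex, coupled with APE1 for strand incision, lower signal meaning inhibition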
T3 sequence (whole entry): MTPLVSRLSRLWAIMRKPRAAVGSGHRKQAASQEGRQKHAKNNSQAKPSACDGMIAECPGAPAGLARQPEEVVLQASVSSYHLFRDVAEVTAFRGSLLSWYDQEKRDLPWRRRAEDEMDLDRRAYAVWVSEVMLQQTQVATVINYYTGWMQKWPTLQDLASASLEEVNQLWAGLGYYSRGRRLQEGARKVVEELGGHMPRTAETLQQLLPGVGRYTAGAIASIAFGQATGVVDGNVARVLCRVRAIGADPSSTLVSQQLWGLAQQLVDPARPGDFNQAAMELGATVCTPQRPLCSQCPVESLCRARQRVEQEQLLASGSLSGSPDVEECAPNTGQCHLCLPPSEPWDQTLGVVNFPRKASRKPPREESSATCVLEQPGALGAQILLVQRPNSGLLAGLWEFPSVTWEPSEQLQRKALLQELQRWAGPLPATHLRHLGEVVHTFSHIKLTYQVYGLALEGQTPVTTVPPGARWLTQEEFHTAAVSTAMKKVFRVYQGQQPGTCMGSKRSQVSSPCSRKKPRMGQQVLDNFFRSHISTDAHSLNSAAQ
Description: Inhibition of MUTYH by quantifying inhibition of MUTYH-mediated cleavage and dissociation of quenched duplex DNA oligonucleotides, measured as fluorescence at 594 nm. To generate a functional strand incision and increase turn-over this assay is coupled to APE1.

[6] = target: Uracil-DNA glycosylase (Homo sapiens) (UniProt P13051);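 also: UNG excision on a quenched double-stranded DNA oligo probe, with APE1 added for strand incision and turnover, read as fluorescence at 594 nm as strands separate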
Uracil-DNA glycosylase (Homo sapiens), sequence (P13051 whole entry, the tested form may be a part): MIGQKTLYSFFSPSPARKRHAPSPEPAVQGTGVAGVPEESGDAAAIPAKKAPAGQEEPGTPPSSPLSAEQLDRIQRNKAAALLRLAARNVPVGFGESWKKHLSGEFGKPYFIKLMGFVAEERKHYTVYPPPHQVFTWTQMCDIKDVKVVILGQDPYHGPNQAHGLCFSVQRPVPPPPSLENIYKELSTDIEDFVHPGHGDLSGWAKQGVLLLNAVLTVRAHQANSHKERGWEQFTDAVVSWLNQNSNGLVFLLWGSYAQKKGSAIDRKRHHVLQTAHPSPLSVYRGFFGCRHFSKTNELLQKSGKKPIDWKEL
Description: Inhibition of UNG by quantifying inhibition of UNG-mediated cleavage and dissociation of quenched duplex DNA oligonucleotides, measured as fluorescence at 594 nm. To generate a functional strand incision and increase turn-over this assay is coupled to APE1.

[7] = target: Methyl-CpG-binding domain protein 4 (Homo sapiens) (UniProt O95243);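 also: MBD4 activity read as fluorescence at 594 nm from cleavage and release of a quenched duplex DNA oligonucleotide, with APE1 coupled to incise the strand and raise turnover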
Methyl-CpG-binding domain protein 4 (Homo sapiens), sequence (O95243 whole entry, the tested form may be a part): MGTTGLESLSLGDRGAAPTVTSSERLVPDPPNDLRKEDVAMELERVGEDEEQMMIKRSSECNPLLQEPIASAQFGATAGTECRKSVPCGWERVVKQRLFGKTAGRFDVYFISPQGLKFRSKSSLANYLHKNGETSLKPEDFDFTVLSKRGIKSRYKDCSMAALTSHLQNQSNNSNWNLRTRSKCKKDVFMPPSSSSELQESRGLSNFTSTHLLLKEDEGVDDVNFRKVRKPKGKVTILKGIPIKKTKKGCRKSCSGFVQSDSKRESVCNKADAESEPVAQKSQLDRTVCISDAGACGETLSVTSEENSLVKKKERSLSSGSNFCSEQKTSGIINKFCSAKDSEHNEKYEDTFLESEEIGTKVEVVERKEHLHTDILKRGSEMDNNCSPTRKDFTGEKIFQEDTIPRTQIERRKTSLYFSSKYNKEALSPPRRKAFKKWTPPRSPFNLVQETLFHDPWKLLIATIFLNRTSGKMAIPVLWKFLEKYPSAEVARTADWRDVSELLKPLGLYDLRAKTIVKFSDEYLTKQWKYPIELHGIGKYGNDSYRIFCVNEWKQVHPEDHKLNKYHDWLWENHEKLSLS
Description: Inhibition of MBD4 by quantifying inhibition of MBD4-mediated cleavage and dissociation of quenched duplex DNA oligonucleotides, measured as fluorescence at 594 nm. To generate a functional strand incision and increase turn-over this assay is coupled to APE1.

[8] = target: DNA-3-methyladenine glycosylase (Homo sapiens) (UniProt P29372);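 also: enzyme assay where MPG cuts a quenched duplex DNA oligonucleotide probe, paired with APE1 for strand incision and turnover, read as fluorescence at 594 nm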
DNA-3-methyladenine glycosylase (Homo sapiens), sequence (P29372 whole entry): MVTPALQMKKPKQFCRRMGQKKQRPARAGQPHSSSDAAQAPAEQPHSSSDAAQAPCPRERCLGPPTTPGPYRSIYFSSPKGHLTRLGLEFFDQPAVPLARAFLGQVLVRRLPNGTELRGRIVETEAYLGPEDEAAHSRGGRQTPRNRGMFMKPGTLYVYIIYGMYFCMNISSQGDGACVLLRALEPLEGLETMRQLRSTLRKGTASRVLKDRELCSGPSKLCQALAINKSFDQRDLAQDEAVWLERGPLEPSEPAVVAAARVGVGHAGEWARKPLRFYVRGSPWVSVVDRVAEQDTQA
Description: Inhibition of MPG by quantifying inhibition of MPG-mediated cleavage and dissociation of quenched duplex DNA oligonucleotides, measured as fluorescence at 594 nm. To generate a functional strand incision and increase turn-over this assay is coupled to APE1.

[9] = target: T4, Endonuclease 8-like 2 (Homo sapiens) (UniProt Q969S2);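 also: fluorescence at 594 nm reports NEIL2 cutting and release of a quenched double-stranded DNA oligo substrate, reduced signal read as inhibition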
T4 sequence (whole entry): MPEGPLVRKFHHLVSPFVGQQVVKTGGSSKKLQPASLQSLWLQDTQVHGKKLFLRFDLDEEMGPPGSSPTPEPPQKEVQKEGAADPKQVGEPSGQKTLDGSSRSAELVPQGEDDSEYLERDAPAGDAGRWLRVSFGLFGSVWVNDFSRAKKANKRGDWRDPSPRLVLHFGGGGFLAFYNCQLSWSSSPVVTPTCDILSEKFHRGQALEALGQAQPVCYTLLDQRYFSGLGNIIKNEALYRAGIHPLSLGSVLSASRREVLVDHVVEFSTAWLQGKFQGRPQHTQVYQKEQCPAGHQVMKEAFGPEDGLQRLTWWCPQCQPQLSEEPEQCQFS
Description: Inhibition of NEIL2 by quantifying inhibition of NEIL2-mediated cleavage and dissociation of quenched duplex DNA oligonucleotides, measured as fluorescence at 594 nm.

G/T mismatch-specific thymine DNA glycosylase (Homo sapiens), sequence (Q13569 whole entry): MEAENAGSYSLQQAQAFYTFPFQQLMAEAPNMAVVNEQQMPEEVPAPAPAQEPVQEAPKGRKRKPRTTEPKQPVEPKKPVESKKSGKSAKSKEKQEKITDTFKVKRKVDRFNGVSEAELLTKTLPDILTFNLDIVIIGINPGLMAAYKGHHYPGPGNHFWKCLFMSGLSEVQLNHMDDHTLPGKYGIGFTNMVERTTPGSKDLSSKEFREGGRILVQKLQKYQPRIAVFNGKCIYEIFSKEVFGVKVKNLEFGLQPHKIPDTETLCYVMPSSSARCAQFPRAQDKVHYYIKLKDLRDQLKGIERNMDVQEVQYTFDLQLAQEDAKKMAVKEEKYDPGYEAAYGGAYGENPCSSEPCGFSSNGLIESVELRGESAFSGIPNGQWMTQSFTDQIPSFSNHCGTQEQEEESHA

CC(C)(C)c1ccc(NC(=O)N2CCN(c3ncccc3Cl)CC2)cc1
inhibition [1]: 11% | inhibition [2]: -0.579% | inhibition [3]: -1.77% | inhibition [4]: 21.2% | inhibition [5]: -0.729% | inhibition [6]: -5.92% | inhibition [7]: 8.84% | inhibition [8]: 9.36%

N#Cc1cccc(-c2nc(-c3cccnc3)no2)c1
inhibition [1]: -5.18% | inhibition [2]: -8.21% | inhibition [3]: 2.53% | inhibition [9]: -2.39% | inhibition [4]: -1.08% | inhibition [5]: -6.2% | inhibition [6]: -2.96% | inhibition [7]: -5.03% | inhibition [8]: -9.43%

CNc1nc(-c2ccc3c(N)n[nH]c3c2)cc(N2C[C@@H](C(=O)NC3CCCCC3)CC[C@H]2C)n1
inhibition [1]: 57.1% | inhibition [2]: 20.7% | inhibition [3]: 3.84% | inhibition [9]: -5.15% | inhibition [4]: -2% | inhibition [5]: 25.6% | inhibition [6]: 5.37% | inhibition [7]: 21.4% | inhibition [8]: 23.1%

CCNC(=O)[C@H]1O[C@@H](n2cnc3c(N)ncnc32)[C@H](O)[C@@H]1O
inhibition [1]: -4.15% | inhibition [2]: -5.33% | inhibition [3]: 3.86% | inhibition [4]: 17.9% | inhibition [5]: -3.4% | inhibition [6]: -2.94% | inhibition [7]: -0.442% | inhibition [8]: -3.56%

COCc1nc2cnc3cc(-c4c(C)noc4C)c(OC[C@H]4CCNC4)cc3c2n1[C@H](C)c1ccccc1
inhibition [1]: 54.7% | inhibition [2]: -7.21% | inhibition [3]: -6.95% | inhibition [9]: -1.25% | inhibition [4]: -9.18% | inhibition [5]: 2.41% | inhibition [6]: -1.93% | inhibition [7]: 57.4% | inhibition [8]: -8.22%

COc1cc(OC2CCN(C(C)=O)CC2)ccc1C(=O)N1CCC(N2C(=O)OCc3ccccc32)CC1
inhibition [1]: 20.8% | inhibition [2]: -0.579% | inhibition [3]: 2.08% | inhibition [9]: 5.25% | inhibition [4]: 24.5% | inhibition [5]: 48.1% | inhibition [6]: -2.76% | inhibition [7]: 5.95% | inhibition [8]: -3.3%

COc1cc(C(=O)N(CCC2CCCN2C)C/C(C)=C/c2ccccc2F)cc(OC)c1OC (configuration not stated)
inhibition [1]: 0.239% | inhibition [2]: -3.01% | inhibition [3]: 4.16% | inhibition [9]: -1.62% | inhibition [4]: -5.21% | inhibition [5]: -4.18% | inhibition [6]: -3.28% | inhibition [7]: -5.37% | inhibition [8]: -9.88%

CC(C)(O)c1ccc2c(c1)ncn2-c1cccc(-c2ccccc2C#N)c1
inhibition [1]: -5.39% | inhibition [2]: 1% | inhibition [3]: -1.62% | inhibition [4]: 12.1% | inhibition [5]: -2.7% | inhibition [6]: -7.68% | inhibition [7]: 26.4% | inhibition [8]: 3.49%

COC(=O)N1CCN(C(=O)Cc2ccc(Cl)c(Cl)c2)C(CN2CCCC2)C1 (configuration not stated)
inhibition [1]: -7.07% | inhibition [2]: -9.51% | inhibition [3]: 4.16% | inhibition [9]: 0.414% | inhibition [4]: 19.6% | inhibition [5]: 4.69% | inhibition [6]: -7.49% | inhibition [7]: 11.3% | inhibition [8]: -2.31%

CN[C@@H](C)C/C=C/c1cncc(OC(C)C)c1
inhibition [1]: 4.54% | inhibition [2]: -1.2% | inhibition [3]: -3.1% | inhibition [9]: 6.78% | inhibition [4]: 4.7% | inhibition [5]: 16.8% | inhibition [6]: -5.51% | inhibition [7]: 1.46% | inhibition [8]: -3.71%

O=S1(=O)NCN(C2CC2)c2ccc(F)cc21
inhibition [1]: 10.8% | inhibition [2]: -1.26% | inhibition [3]: 3.86% | inhibition [9]: 8.57% | inhibition [4]: 10.5% | inhibition [5]: 6.74% | inhibition [6]: -3.37% | inhibition [7]: 0.854% | inhibition [8]: 3.15%

NCCc1cccs1
inhibition [1]: 6.37% | inhibition [2]: -0.24% | inhibition [3]: 7.57% | inhibition [9]: 9.33% | inhibition [4]: 8.82% | inhibition [5]: -1.84% | inhibition [6]: -3.89% | inhibition [7]: 2.05% | inhibition [8]: -5.51%

N[C@@]1(C(=O)O)CC[C@H]2[C@H](C(=O)O)[C@H]21
inhibition [1]: 13.1% | inhibition [2]: 2.53% | inhibition [3]: 5.05% | inhibition [9]: -1.37% | inhibition [4]: 27.8% | inhibition [5]: 4.77% | inhibition [6]: -8.38% | inhibition [7]: 2.62% | inhibition [8]: -1.43%

COC1(C[S@@+]([O-])c2ccccc2)CCN(CCc2c[nH]c3ccc(F)cc23)CC1
inhibition [1]: 6.29% | inhibition [2]: -8.49% | inhibition [3]: 5.2% | inhibition [4]: 17.1% | inhibition [5]: -7.4% | inhibition [6]: -4% | inhibition [7]: 2.25% | inhibition [8]: -3.99%

C[C@@H](C(N)=O)[C@H](N)c1nc2ccc(C(C)(C)C)cc2[nH]1
inhibition [1]: 6.56% | inhibition [2]: -0.466% | inhibition [3]: 0.158% | inhibition [4]: 12.9% | inhibition [5]: 0.595% | inhibition [6]: -4.85% | inhibition [7]: 10.2% | inhibition [8]: 2.09%

CC[C@H]1CN(c2nc(N)c(C(N)=O)nc2Cl)CCN1C1CCN(Cc2ccc(Cl)cc2)CC1
inhibition [1]: 2.57% | inhibition [2]: -7.08% | inhibition [3]: 5.05% | inhibition [9]: 3.47% | inhibition [4]: 24.5% | inhibition [5]: -3.97% | inhibition [6]: -8.52% | inhibition [7]: -2.17% | inhibition [8]: -5.95%

CN(C)CCCc1cc(C(=O)Nc2ccc(-c3ccncc3)cc2)ccc1O
inhibition [1]: 22.9% | inhibition [2]: 1.23% | inhibition [3]: 0.602% | inhibition [9]: 8.82% | inhibition [4]: 12.1% | inhibition [5]: 5.24% | inhibition [6]: -0.815% | inhibition [7]: 15.3% | inhibition [8]: 5.48%

CC(C)(O)c1cnc(N2C[C@@]3(CCC[C@](C)(Cn4cnc5ccc(C#N)cc54)C3)OC2=O)cn1
inhibition [1]: 6.22% | inhibition [2]: 2.98% | inhibition [3]: 1.2% | inhibition [9]: 5.76% | inhibition [4]: 8% | inhibition [5]: 47.1% | inhibition [6]: -2.44% | inhibition [7]: 9.84% | inhibition [8]: 10.5%

CO[C@H]1CC=C2CCN3CCC4=C(CC(=O)OC4)[C@]23C1
inhibition [1]: -1.81% | inhibition [2]: -2.5% | inhibition [3]: -3.1% | inhibition [9]: -5.96% | inhibition [4]: -0.258% | inhibition [5]: 1.14% | inhibition [6]: -6.82% | inhibition [7]: 5.26% | inhibition [8]: -7.01%

Cc1c(F)cccc1[C@H]1COC(N)=N1
inhibition [1]: 11.7% | inhibition [2]: -8.55% | inhibition [3]: 11.3% | inhibition [9]: -0.86% | inhibition [4]: 14.6% | inhibition [5]: 32.1% | inhibition [6]: -1.2% | inhibition [7]: 5.02% | inhibition [8]: 12.2%

O=C(Nc1cc(-c2ccccc2)nn1-c1ccccc1F)c1ccc([N+](=O)[O-])cc1
inhibition [1]: -4.55% | inhibition [2]: -6.29% | inhibition [3]: -2.66% | inhibition [9]: 2.96% | inhibition [4]: 24.5% | inhibition [5]: 7.68% | inhibition [6]: -0.319% | inhibition [7]: -1.82% | inhibition [8]: 9.2%

N#Cc1ccc(O[C@@H]2c3ccccc3C[C@H]2N2CCC[C@@H](N)C2)c(Cl)c1
inhibition [1]: 18.8% | inhibition [2]: -4.87% | inhibition [3]: 13.1% | inhibition [9]: 3.73% | inhibition [4]: 3.87% | inhibition [5]: 0.102% | inhibition [6]: -1.13% | inhibition [7]: -4.66% | inhibition [8]: -4.18%

C=CC(=O)Nc1cccc(C(=O)Nc2ccc(Nc3cc(-c4[nH]c(S)nc4C)ccn3)cc2)c1
inhibition [1]: 102% | inhibition [2]: 16.9% | inhibition [3]: 5.55% | inhibition [9]: 8.04% | inhibition [4]: -6.89% | inhibition [5]: 61% | inhibition [6]: 3.19% | inhibition [7]: 23.5% | inhibition [8]: 19.6%
